Reference: PMC5552782, “Crystal Structure of MpPR-1i, a SCP/TAPS protein from Moniliophthora perniciosa, the fungus that causes Witches’ Broom Disease of Cacao” (Scientific Reports, 2017)

Molecular target: T1, MpPR-1i (Moniliophthora perniciosa, UniProt H6U756)
T1 construct: gene PR-1i; signal peptide removed; cDNA from green broom stage; modified pET SUMO, E. coli SHuffle; His-SUMO tag cut with ULP-1; untagged; monomer
Assay: radioligand binding, Q-sepharose capture, scintillation counting

T1 sequence (H6U756 entry or part of it): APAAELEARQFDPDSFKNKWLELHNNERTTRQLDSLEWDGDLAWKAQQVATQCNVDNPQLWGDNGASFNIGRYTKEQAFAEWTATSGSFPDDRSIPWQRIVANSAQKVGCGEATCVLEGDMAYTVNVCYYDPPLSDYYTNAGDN

CCCCCCCCCCCCCCCC(=O)O [palmitic acid]
Kd: 107 µM
